Data from patent publication US9844506B2, “Compositions and methods for affecting mood states” (priority 2013, dated 2017).

Experiments:
[1] = Interaction of nitric oxide with carriers, weight gain on bubbling NO gas (Example 2); assay type: physicochemical; details: NO bubbled 40 hr, 25° C.
Protocol: In this example, six experiments were carried out to investigate the interaction of nitric oxide with three carriers (HNC 157-62, HNC 157-65, and HNC 157-69) as well as with 1,3-propanediol, using experimental conditions similar to that described for Example 1. In addition three experiments were performed to prepare carriers containing 800 ppm and 500 ppm nitric oxide. HNC 157-62 was formed of 65% Phospholipon-90G (American Lecithin Company), 18% isopropyl palmitate (Kraft Chemicals), 8% capric caprylic triglycerides (RITA Corp.), and 9% propanediol (Dupont). HNC 157-65 was formed of 65% Phospholipon-90G, 13% isopropyl palmitate, 14% capric caprylic triglycerides, 3% propanediol, and 5% dimethyl isosorbide (Croda). HNC 157-69 was formed from 65% Phospholipon-90G, 16% isopropyl palmitate, and 19% capric caprylic triglycerides.
The compositions were generally prepared as follows. Isopropyl palmitate, capric caprylic triglyceride, propanediol (for HNC 157-62 and HNC 157-65), and dimethyl isosorbide (for HNC 157-65) were mixed together and warmed to 40° C. Phospholipon-90G was then gradually added to this liquid mixture by mixing it. Phospholipon-90G is typically received as individual pellets, and is mixed into the solution until fully dissolved. The mixture was subsequently filtered through a sieve to remove any undissolved Phospholipon-90G. […]

[2] = test system: cutaneous vascular system; assay: Laser Doppler circulation in five human subjects, 10,000 ppm NO formulation (Example 8); assay type: in vivo; details: positive control formulation containing 0.1% methyl nicotinate
Source text: This example illustrates delivery of nitric oxide formulations to five human subjects, using procedures and formulations similar to those discussed in Example 5. Each person served as their own control for the testing. A Moor Instruments Laser Doppler was used to determine circulation. […] The formulations used produce positive, almost immediate results when applied to the skin which, in these studies, was manifested by vasodilatation of the cutaneous vascular system.
For each subject, the following creams were applied: a negative control formulation (containing no NO), 0.010 gram of a 10,000 ppm NO formulation, 0.020 gram of a 10,000 ppm NO formulation, and a positive control formulation containing 0.1% methyl nicotinate. The formulations were prepared using procedures similar to those discussed in Example 1.

[3] = test system: microcirculation of the skin; assay: Laser Doppler capillary blood flow in human female subjects, 10,000 ppm NO in closed chamber (Example 5); assay type: in vivo; details: applied to skin at 1/10% in alcohol
Source text: The formulation used in these studies contained nitric oxide dispersed in a lipid matrix. […] Nitric oxide is a very rapid acting molecule, and these studies used a system that employed laser Doppler with a covered chamber. The formulation was placed into the chamber and then attached to the skin by an adhesive layer on the covering. This provided a stable measuring device as determined by multiple normal evaluations of the capillary blood flow without treatment of nitric oxide.
A known positive control, methyl nicotinate, was applied to the skin at a concentration of 1/10% in alcohol. […] The vascular dynamics are such that when the blood vessels dilate physical parameters follow Bernoulli's law. This states that as one increases the diameter of a tube containing a liquid to flow will increase but the pressure and the speed of the liquid will decrease. The laser Doppler device accurately measured these parameters.
The test product was labeled as 10,000 ppm NO (nitric oxide). The study participants had 100 mg of the test product applied in a closed Hilltop chamber on the forearm. […]
A Moor Instruments DRT4 Laser Doppler Blood Flow Monitor (Devon, England) was used in these studies. The laser Doppler technique measured blood flow in the microcapillaries of the skin that are close to the skin surface and the blood flow in underlying arterioles and venules that help to regulate skin temperature. […]

SMILES	% Wt. gain [1] [%]	Wt. Gain [1] [g]	vasodilatation versus control untreated skin [2]	laser Doppler response to positive control [3]
OCCCO [1,3-Propanediol, 1,3-propanediol]	0.09	0.16		
COC(=O)c1cccnc1 [methyl nicotinate]			vasodilatation was observed	rapid response typical of the vasodilator
